# Test: xn = mol fraction of the nth substance listed
# Conditions: 101.3 kPa
smiles,measurement,setting,value
CNc1ccccc1 + CCCCCCCCn1cc[n+](C)c1.F[B-](F)(F)F,speed of sound,"298.15 K, x2 = 0",1565 m/s
same,speed of sound,"303.15 K, x2 = 0",1546 m/s
same,speed of sound,"308.15 K, x2 = 0",1527 m/s
same,speed of sound,"313.15 K, x2 = 0",1508 m/s
same,speed of sound,"318.15 K, x2 = 0",1489 m/s
same,speed of sound,"323.15 K, x2 = 0",1471 m/s
CNc1ccccc1 + CCCC[n+]1ccn(C)c1.F[B-](F)(F)F,speed of sound,"293.15 K, x2 = 0",1584 m/s
same,speed of sound,"293.15 K, x2 = 0.0973",1598 m/s
same,speed of sound,"293.15 K, x2 = 0.184",1602 m/s
same,speed of sound,"293.15 K, x2 = 0.5025",1594 m/s
same,speed of sound,"293.15 K, x2 = 0.7005",1586 m/s
same,speed of sound,"293.15 K, x2 = 0.901",1580 m/s
same,speed of sound,"298.15 K, x2 = 0.184",1587 m/s
same,speed of sound,"298.15 K, x2 = 0.2982",1590 m/s
same,speed of sound,"298.15 K, x2 = 0.3909",1586 m/s
same,speed of sound,"298.15 K, x2 = 0.5025",1580 m/s
same,speed of sound,"298.15 K, x2 = 0.5928",1577 m/s
same,speed of sound,"298.15 K, x2 = 0.7005",1573 m/s
same,speed of sound,"298.15 K, x2 = 0.7963",1571 m/s
same,speed of sound,"298.15 K, x2 = 0.901",1569 m/s
same,speed of sound,"303.15 K, x2 = 0",1546 m/s
same,speed of sound,"303.15 K, x2 = 0.0973",1564 m/s
same,speed of sound,"303.15 K, x2 = 0.184",1572 m/s
same,speed of sound,"303.15 K, x2 = 0.2982",1575 m/s
same,speed of sound,"303.15 K, x2 = 0.3909",1572 m/s
same,speed of sound,"303.15 K, x2 = 0.901",1558 m/s
same,speed of sound,"308.15 K, x2 = 0",1527 m/s
same,speed of sound,"308.15 K, x2 = 0.184",1555 m/s
same,speed of sound,"308.15 K, x2 = 0.2982",1560 m/s
same,speed of sound,"308.15 K, x2 = 0.5025",1554 m/s
same,speed of sound,"308.15 K, x2 = 0.7005",1550 m/s
same,speed of sound,"308.15 K, x2 = 0.901",1547 m/s
same,speed of sound,"313.15 K, x2 = 0",1508 m/s
same,speed of sound,"313.15 K, x2 = 0.0973",1532 m/s
same,speed of sound,"313.15 K, x2 = 0.184",1540 m/s
same,speed of sound,"313.15 K, x2 = 0.2982",1544 m/s
same,speed of sound,"313.15 K, x2 = 0.3909",1544 m/s
same,speed of sound,"313.15 K, x2 = 0.5025",1543 m/s
same,speed of sound,"313.15 K, x2 = 0.5928",1541 m/s
same,speed of sound,"313.15 K, x2 = 0.7005",1539 m/s
same,speed of sound,"313.15 K, x2 = 0.901",1536 m/s
same,speed of sound,"318.15 K, x2 = 0.0973",1515 m/s
same,speed of sound,"318.15 K, x2 = 0.184",1524 m/s
same,speed of sound,"318.15 K, x2 = 0.2982",1529 m/s
same,speed of sound,"318.15 K, x2 = 0.3909",1530 m/s
same,speed of sound,"318.15 K, x2 = 0.5928",1528 m/s
same,speed of sound,"318.15 K, x2 = 0.7005",1527 m/s
same,speed of sound,"318.15 K, x2 = 0.7963",1526 m/s
same,speed of sound,"318.15 K, x2 = 0.901",1525 m/s
same,speed of sound,"323.15 K, x2 = 0",1471 m/s
same,speed of sound,"323.15 K, x2 = 0.0973",1498 m/s
same,speed of sound,"323.15 K, x2 = 0.184",1508 m/s
same,speed of sound,"323.15 K, x2 = 0.2982",1514 m/s
same,speed of sound,"323.15 K, x2 = 0.5025",1516 m/s
same,speed of sound,"323.15 K, x2 = 0.5928",1515 m/s
same,speed of sound,"323.15 K, x2 = 0.7005",1516 m/s
same,speed of sound,"323.15 K, x2 = 0.7963",1515 m/s
same,speed of sound,"323.15 K, x2 = 0.901",1516 m/s
CCCCCC[n+]1ccn(C)c1.F[B-](F)(F)F + CNc1ccccc1,speed of sound,"298.15 K, x1 = 1",1519 m/s
same,speed of sound,"303.15 K, x1 = 1",1507 m/s
same,speed of sound,"308.15 K, x1 = 1",1494 m/s
same,speed of sound,"313.15 K, x1 = 1",1482 m/s
same,speed of sound,"318.15 K, x1 = 1",1470 m/s
same,speed of sound,"323.15 K, x1 = 1",1458 m/s
